Entries after “also recorded” stand apart in the source; their conditions may differ. Read-outs that look alike come from different tables or passages of the source.
Columns and labels:
[1] = system: γH2AX foci in cell nuclei; assay: DNA damage examination by fluorescence microscopy; assay type: cell-based, human
Procedure: For DNA damage and cell cycle examination, the following drug concentrations were selected: For A2780—6 μM carboplatin, 1 μM olaparib, and 0.5 μM niraparib; For OVCAR-3-16 μM carboplatin, 0.5 μM olaparib, and 0.8 μM niraparib; For A2780cis—36 μM carboplatin, 10 μM olaparib, and 1.5 μM niraparib. Treated cells were fixed with 4% paraformaldehyde for 10 min, permeabilized for 20 min with 0.5% Triton X-100 in PBS, and blocked with donkey serum (PBS with 0.3% Triton X-100 and donkey serum 1:100). Cells were incubated at 4° C. overnight with anti-γH2AX antibody (Cell Signaling, Danvers, MA, USA; #9718, 1:400), followed by incubation at room temperature for 1 hr with Alexa Flour 488-conjugated secondary antibody (Jackson Immunoresearch, Cambridge, UK; #711-545-152, 1:500) and […] 4′,6-diamidino-2-phenylindole (DAPI; Sigma Aldrich, Rehovot, Israel). LSM 700 laser scanning confocal system (Zeiss, Gottingen, Germany) was utilized to obtain images, and the mean number of foci per nucleus was determined using the FIJI software with the BioVoxxel plugin.

A2780cis cells [2] = assay: Cell count and overall effect (cell count x colony formation) after 72 h drug with or without TTFields; assay type: cell-based, human; details: for effect of TTFields on the drug-induced overall effect (cell count x colony formation) / effect of TTFields on the drug-induced effect, cell count: TTFields plus drug vs drug alone; for effect of TTFields on the drug-induced effect, cell count: p<0.0001; for sensitivity to drug (cell count dose response) / effect of TTFields on sensitivity to / effect of the drug / type of TTFields-drug interaction (measured vs calculated additive curve): 72 h; for sensitivity to drug (cell count dose response): compared among A2780, OVCAR-3, A2780cis; for effect of TTFields on sensitivity to / effect of the drug: platinum-resistant cell line; for effect of TTFields on sensitivity to / effect of the drug / type of TTFields-drug interaction (measured vs calculated additive curve): TTFields 200 kHz, 1 V/cm RMS; for type of TTFields-drug interaction (measured vs calculated additive curve): platinum-resistant cells
Procedure: (§1) TTFields were applied to the cells for 72 h in the absence or presence of various concentrations of carboplatin. Synergy was defined when the observed value was lower than that predicted for an additive effect (presented by the red dotted line-calculated by multiplying the observed effects for TTFields alone with that for cisplatin alone).
The Cytotoxic effect was also determined. Treated cells were counted using a flow cytometer, and cytotoxic effect was calculated relative to control cells.
Treated cells were harvested, re-plated, and grown for an additional 7-14 days. Colonies were stained (0.5% crystal violet solution), counted, and clonogenic effect was calculated relative to control. The overall effect was calculated by multiplying the cytotoxic and clonogenic effects.
TTFields application was studied. Ovarian carcinoma cells A2780cis (cisplatin resistant cells) were treated for 72 h with TTFields at an intensity of 1 V/cm RMS and a frequency of 200 kHz using the inovitro system (See FIG. 11).
as §1, with “PARPi Olaparib and Niraparib.” for “carboplatin.”
The cytotoxic effect was studied. Treated cells were counted using a flow cytometer, and cytotoxic effect was calculated relative to control cells.
Treated cells were harvested, re-plated, and grown for an additional 7-14 days. Colonies were stained (0.5% crystal violet solution), counted, and clonogenic effect was calculated relative to control. Overall effect was calculated by multiplying the cytotoxic and clonogenic effects.
(§2) Cells were seeded on coverslip (22 mm diameter; 20×10^3 cells/coverslip for A2780 and A2780cis; 40×10^3 cells/coverslip for OVCAR-3). After overnight incubation, the coverslips were transferred into in vitro dishes containing 2 ml of media. TTFields at a frequency of 200 kHz (and intensity of 1 V/cm RMS) were applied to the cells for 72 hr using the INOVITRO system (Novocure, Haifa, Israel).
(§3) For efficacy outcomes (cell count, overall effect, and apoptosis), various concentrations of carboplatin (MCE MedChemExpress, HY-17393), olaparib (Cayman Chemical, 10621), or niraparib (Cayman Chemical, 20842) were applied, with or without TTFields.
(§4) Cell count was examined following treatment using Cytek Northern Lights flow cytometer (Cytek Biosciences, USA).
(§5) Treated cells were harvested, re-plated in 6-well plates (500 cells/well for A2780 and A2780cis; 1000 for cells/well OVCAR-3), and grown for 7 (A2780 and A2780cis) or 21 (OVCAR-3) days. Colonies were stained with 0.5% crystal violet, quantified with ImageJ, and expressed as percentages relative to control. Overall effect was calculated by multiplying colony formation with the corresponding cell count.
(§6) The surviving fraction predicted for an additive effect between TTFields and drug was calculated per the various drug concentrations by multiplying the actual measured surviving fractions for the individual treatments one by the other (SFcalculated additive=SFTTFields×SFdrug; SF are expressed as probability). Based on the calculated values, a trendline was determined. Additivity, synergy, or antagonism was defined when the calculated additive trendline overlapped, was above, or was below the actual measured line for TTFields+drug, respectively.
(§7) For quantifying the magnitude of TTFields-drug interaction, interaction index (Ii) values were calculated by the Bliss independence method using mortality values (Mx=1−SFx). Per the various drug concentrations, mortality predicted for an additive effect between TTFields and drug (Mcalculated additive=MTTFields+Mdrug−MTTFields×Mdrug) was divided by the actual measured mortality for TTFields+drug.

OVCAR-3 cells [3] = assay: Apoptosis, Annexin V/7-AAD staining, flow cytometer; assay type: cell-based, human; details: TTFields applied with drug
Procedure: (§8) Apoptosis: Treated cells were double-stained with FITC-conjugated annexin V (AnnV) and 7-aminoactinomycin D (7AAD), and data acquisition was performed with a flow cytometer.
(§9) Treated cells were stained with FITC-conjugated Annexin V (AnnV) and 7-Aminoactinomycin D (7-AAD) using a commercial kit (BioLegend, San Diego, CA, USA), according to the manufacturer's instruction. Data acquisition and analysis were done on the Cytek Northern Lights flow cytometer

G2/M cell cycle arrest = assay: Cell cycle analysis (7-AAD, flow cytometer); assay type: cell-based, human
Procedure: For DNA damage and cell cycle examination, the following drug concentrations were selected: For A2780—6 μM carboplatin, 1 μM olaparib, and 0.5 μM niraparib; For OVCAR-3-16 μM carboplatin, 0.5 μM olaparib, and 0.8 μM niraparib; For A2780cis—36 μM carboplatin, 10 μM olaparib, and 1.5 μM niraparib. Treated cells were fixed with 70% ice-cold ethanol for 30 min, pelleted, washed, and stained for 30 min at 37° C. in phosphate buffered saline (PBS) containing 1% FBS 5 μg/ml 7-AAD (BioLegend), 200 μg/ml RNase, 1 mM EDTA and 0.1% Triton X-100. Data acquisition (at 665/30 nm) and analysis were done on the Cytek Northern Lights flow cytometer and the FlowJo 10.8.1 software (BD Biosciences), respectively.

A2780 cells [4] = assay: Apoptosis, Annexin V/7-AAD staining, flow cytometer; assay type: cell-based, human; details: TTFields applied with drug
Procedure: as §8
(§10) Apoptosis was also examined. Treated cells were double-stained with FITC-conjugated annexin V (AnnV) and 7-aminoactinomycin D (7AAD), and data acquisition was performed with a flow cytometer.
as §9

A2780cis cells [5] = assay: as above; assay type: cell-based, human; details: TTFields applied with drug
Procedure: as §10
Treated cells were double-stained with FITC-conjugated annexin V (AnnV) and 7-aminoactinomycin D (7AAD), and data acquisition was performed with a flow cytometer.
as §9

A2780 cells [6] = details: for type of TTFields-drug interaction (measured vs calculated additive curve): HRP cells; for effect of TTFields on the drug-induced overall effect (cell count x colony formation) / effect of TTFields on the drug-induced effect, cell count: TTFields plus drug vs drug alone; for effect of TTFields on the drug-induced effect, cell count: p<0.0001
Procedure: as §2, §3, §4, §5, §6
as §7, with “TTFields+drug. Additivity was determined when the 95% confidence interval (CI) overlapped 1, synergy when 95% CI<1, and antagonism when 95% CI>1. Lower Ii values were considered indicative of higher synergy levels.” for “TTFields+drug.”

OVCAR-3 cells [7] = details: for effect of TTFields on the drug-induced overall effect (cell count x colony formation) / effect of TTFields on the drug-induced effect, cell count: TTFields plus drug vs drug alone; for effect of TTFields on the drug-induced effect, cell count: p<0.0001; for sensitivity to drug (cell count dose response): drug alone, compared among A2780, OVCAR-3, A2780cis
Procedure: as §2, §3, §4, §5, §6
as §7, with “TTFields+drug. Additivity was determined when the 95% confidence interval (CI) overlapped 1, synergy when 95% CI<1, and antagonism when 95% CI>1. Lower Ii values were considered indicative of higher synergy levels.” for “TTFields+drug.”

[8] = treatment alone, all cell lines (A2780, OVCAR-3, A2780cis), relative to control
[9] = Bliss independence, TTFields plus drug
[10] = TTFields 200 kHz, 1 V/cm RMS, 72 h

| Structure (SMILES) | levels of γH2AX foci, monotherapy [1, 8] | effect of TTFields on the drug-induced overall effect (cell count x colony formation) (A2780cis cells [2]) | effect of TTFields on the drug-induced effect, cell count (A2780cis cells [2]) | sensitivity to drug (cell count dose response) (A2780cis cells [2]; drug alone) | effect of TTFields on sensitivity to / effect of the drug (A2780cis cells [2]) | type of TTFields-drug interaction (measured vs calculated additive curve) (A2780cis cells [2]) | effect of TTFields on the apoptotic effect / apoptotic cell fraction (OVCAR-3 cells [3]) | cell cycle arrest, drug alone (G2/M cell cycle arrest) | effect of TTFields on the apoptotic effect / apoptotic cell fraction (A2780 cells [4]) | effect of TTFields on the apoptotic effect / apoptotic cell fraction (A2780cis cells [5]) | type of TTFields-drug interaction (measured vs calculated additive curve) (A2780 cells [6]; [10]) | type of TTFields-drug interaction, overall effect (cell count and clonogenic effect) (A2780 cells [6]; [10]) | effect of TTFields on the drug-induced overall effect (cell count x colony formation) (A2780 cells [6]) | effect of TTFields on the drug-induced effect, cell count (A2780 cells [6]) | effect of TTFields on the drug-induced overall effect (cell count x colony formation) (OVCAR-3 cells [7]) | effect of TTFields on the drug-induced effect, cell count (OVCAR-3 cells [7]) | sensitivity to drug (cell count dose response) (OVCAR-3 cells [7]; 72 h) | further results |
| --- | --- | --- | --- | --- | --- | --- | --- | --- | --- | --- | --- | --- | --- | --- | --- | --- | --- | --- |
| N.N.O=C([O-])C1(C(=O)[O-])CCC1.[Pt+2] [carboplatin] | more pronounced effect | significantly elevated | significantly amplified | lower response; also recorded: highest resistance | increased the sensitivity | synergistic; also recorded: synergistically; also recorded: tendency to synergy | enhanced; also recorded: increases | induced G2/M arrest | enhanced; also recorded: increases | increases | tendency to synergism; also recorded: additive; also recorded: tendency to synergy | Signs of synergy | significantly elevated | significantly amplified | significantly elevated | significantly amplified | highest sensitivity | levels of γH2AX foci, monotherapy ([1]; drug alone, OVCAR-3 cells): especially dramatic; level of TTFields-drug synergy (A2780cis cells [2]; A2780cis relative to A2780 cells, by Ii): higher levels; interaction index (Ii), 95% confidence interval (A2780cis cells [2]; [9]): smaller than 1; decreased sensitivity of A2780cis cells compared with wild type A2780 cells (A2780cis cells [2]; drug alone, titration): 5 fold; interaction index (Ii), 95% confidence interval (A2780 cells [6]; [9]): smaller than 1; type of TTFields-drug interaction, cytotoxic effect (cell count) (A2780 cells [6]; TTFields 200 kHz, 1 V/cm RMS, 72 h, BRCA wt): Signs of synergy; interaction index (Ii), 95% confidence interval (OVCAR-3 cells [7]; [9]): > 1 |
| NC(=O)c1cccc2cn(-c3ccc([C@@H]4CCCNC4)cc3)nc12 [niraparib] | mild elevation | significantly augmented | significantly augmented | highest resistance | increased the sensitivity | tendency to synergy | enhanced; also recorded: elevation | induced G2/M arrest | enhanced; also recorded: elevation | elevation | high synergy | synergistically | significantly augmented | significantly augmented | significantly augmented | significantly augmented | highest sensitivity | type of TTFields-drug interaction, cytotoxic effect (cell count) (A2780 cells [6]): synergistically; level of TTFields-drug synergy (A2780 cells [6]; A2780 relative to A2780cis cells, by Ii): higher; type of TTFields-drug interaction, cytotoxic effect (cell count) (OVCAR-3 cells [7]): additively; type of TTFields-drug interaction (measured vs calculated additive curve) (OVCAR-3 cells [7]; HRD cells, TTFields 200 kHz, 1 V/cm RMS, 72 h): additively; type of TTFields-drug interaction, overall effect (cell count and clonogenic effect) (OVCAR-3 cells [7]; [10]): additive |
